{
  "source": "patent US11491127B2",
  "about": "“Therapeutic use of compounds” (UCL BUSINESS LTD, priority 2010, dated 2022)",
  "key": {"[1]": {"tested_on": "phosphoinositide (PIP and PIP2) turnover in Dictyostelium AX2 cells", "assay": "Dictyostelium phospholipid labelling (PIP and PIP2 turnover)", "type": "cell-based, Dictyostelium discoideum", "conditions": "for activity at 500 µM: 0.1 h", "method": "Phospholipid labelling was quantified using a Typhoon phosphor-imager. Even loading was determined using total lipid stain with copper sulphate."}, "[2]": {"tested_on": "PTZ-induced epileptiform activity in entorhinal cortex-hippocampal slices", "assay": "In vitro PTZ acute seizure model, entorhinal cortex-hippocampus slices", "type": "cell-based, rat", "conditions": "PTZ 2 mM, [K+] 6 mM; compounds equimolar 1 mM; 30 to 40 minutes after application", "method": "The rats (p21) were decapitated after killing by intraperitoneal injection with an overdose of pentobarbitone (500 mg/kg). The brain was removed and placed in ice-cold sucrose solution in mM: NaCl 87, KCl 2.5, MgCl2 7, CaCl2 0.5, NaH2PO4 1.25, sucrose 75, glucose 25, equilibrated with 95% 02/5% CO2 (pH 7.4). Horizontal combined entorhinal cortex-hippocampus slices (350 μm) were prepared with a Leica vibratome (Leica V T1200S) and were then stored in an interface chamber that contained artificial cerebrospinal fluid solution (aCSF) containing in mM: NaCl 119, KCl 2.5, MgSO4 4, CaCl2 4, NaHCO326.2, NaH2PO4 1, glucose 11, and gassed with 95% O2/5% CO2. They were stored for over one hour before being transferred to a submersion recording chamber continually perfused with carbogenated aCSF for recording. Field potential recordings were made by placing glass microelectrodes (˜1-2 MΩ) filled with aCSF solution in stratum radiatum of CA1. Bipolar stimulating electrodes were positioned in the Schaffer collateral/commissural fibre pathway in stratum radiatum to confirm slice viability. In the PTZ acute seizure model, PTZ (2 mM) was added to the perfusate and [K+] was increased to 6 mM in order to induce epileptiform activity (Armand et al., 1998). In the low Mg^2+ acute seizure model, Mg^2+ free aCSF was applied to generate rhythmic short recurrent discharges. Novel anticonvulsants were applied once the frequency and amplitude of the epileptiform discharges were stable over a period of 10 min. Anticonvulsant effects were evaluated by measuring the variation of frequency of the discharges every minute. The data acquired from the 30 to 40 minutes after application novel anticonvulsants were compared by ANOVA followed by post-hoc testing using Tukey test, using SPSS statistical analysis."}, "[3]": {"tested_on": "release of 3H arachidonic acid / palmitic acid radiolabel from Dictyostelium cells", "assay": "Fatty acid release (3H radiolabel release from labelled cells)", "type": "cell-based, Dictyostelium discoideum"}, "[4]": {"tested_on": "uptake of 3H arachidonic acid / palmitic acid into Dictyostelium cells", "assay": "Fatty acid uptake (3H radiolabel incorporation into cells)", "type": "cell-based, Dictyostelium discoideum", "conditions": "for EC50: Dictyostelium"}, "[5]": {"tested_on": "lipid droplets in Dictyostelium cells", "assay": "Bodipy fatty acid lipid droplet accumulation", "type": "cell-based, Dictyostelium discoideum", "conditions": "0.5 mM VPA; bodipy-labelled lipid"}, "[6]": {"tested_on": "Dictyostelium development", "assay": "Dictyostelium development", "type": "cell-based, Dictyostelium discoideum", "conditions": "concentrations found in plasma of patients (0.28-0.7 mM)", "method": "Screening of a REMI library was carried out as previously described (Kuspa & Loomis, 2006) using A×2 background, with VPA resistant mutants selected for the ability to develop in the presence of 1 mM VPA on R. planticola. Identification of the ablated gene, enabled the identified PLAa (DDB_G0278525; SEQ ID NO: 16) to be recapitulated using by homologous recombination of a knockout cassette. Primers used for amplifying region within the open reading frame of the gene were (5′ […] (SEQ ID NO: 17) and 3′ […] (SEQ ID NO: 18), cloned by pCR2.1 TOPO (Invitrogen Ltd)), cloned into pUC19 using EcoRI digestion, and Sinai digested fragment from pBLPblp (Falx et al, 2004) was inserted into the EcoRV site of the insert. Genetic ablation was confirmed by PCR analysis. […] Development images were observed using a Leica CLS 150× microscope and images recorded using QICAM FAST 1394 camera. Fatty acid activation was determined by the method established by Wilson et al. (Wilson et al, 1982) with slight modifications. […] The organic phase was discarded and the aqueous phase was washed six times with 300 μl of n-heptane to remove non-activated fatty acids before the radioactivity of the acyl-CoA thioester remaining in the aqueous phase was determined in 2 ml of Lumasafe™ Plus fluid (Lumac LSC, Groningen, The Netherlands) in a scintillation counter."}, "[7]": {"conditions": "cited from earlier work"}, "[8]": {"conditions": "0.5 mM VPA, 6 min treatment (printed 6 mM)"}, "[9]": {"conditions": "5×PI3K knockout mutant, 0.5 mM VPA, 9 min"}, "[10]": {"conditions": "PIPKinA knockout mutant, 0.5 mM VPA, 9 min"}, "[11]": {"conditions": "cells lacking phospholipase C gene, 0.5 mM VPA, 9 min"}, "[12]": {"conditions": "prolyl oligopeptidase (PO) ablated cells, 0.5 mM VPA, 9 min"}, "[13]": {"conditions": "rPKA knockout mutant, 0.5 mM VPA, 9 min"}},
  "note": "Read-outs that look alike come from different tables or passages of the source.",
  "data": [
    {"smiles": "CCCC(CCC)C(=O)O", "note": "[VPA, 2-propylpentanoic acid, reference compound]", "values": [
      {"measurement": "reduction in radio-labelled PIP2 turnover", "setting": "[1]; [8]", "value": 49, "unit": "%"},
      {"measurement": "reduction in radio-labelled PIP turnover", "setting": "[1]; [8]", "value": 49, "unit": "%"},
      {"measurement": "reduction of PIP2 turnover", "setting": "[1]; 0.5 mM VPA, 9 min treatment", "value": 79, "unit": "%"},
      {"measurement": "reduction of PIP turnover", "setting": "[1]; 0.5 mM VPA, 9 min treatment", "value": 68, "unit": "%"},
      {"measurement": "reduction in PIP2 turnover", "setting": "[1]; 0.5 mM VPA, 60 min treatment", "value": 94, "unit": "%"},
      {"measurement": "reduction in PIP turnover", "setting": "[1]; 0.5 mM VPA, 60 min treatment", "value": 94, "unit": "%"},
      {"measurement": "reduction of PIP2 production compared to untreated cells", "setting": "[1]; [9]", "value": 70, "unit": "%"},
      {"measurement": "reduction of PIP production compared to untreated cells", "setting": "[1]; [9]", "value": 48, "unit": "%"},
      {"measurement": "activity at 500 µM", "setting": "[1]; Dictyostelium, read-out: PIP Level (% control), Table 1, 0.5 mM compound, 3 min pre-treatment + 6 min labelling, wild type Dictyostelium", "value": 32, "unit": "%"},
      {"measurement": "activity at 500 µM", "setting": "[1]; Dictyostelium, read-out: PIP level % control, Table 2, VPA and straight chain acids in Dictyostelium", "value": 32, "unit": "%"},
      {"measurement": "EC50", "setting": "[1]; Dictyostelium, 0.15 h, read-out: EC50 of inhibition of phosphoinositide turnover", "value": 154, "unit": "µM"},
      {"measurement": "inhibition at 250 µM", "setting": "[1]; Dictyostelium, 0.15 h, read-out: inhibition of PIP2 turnover", "value": 42, "unit": "%"},
      {"measurement": "inhibition at 250 µM", "setting": "[1]; Dictyostelium, 0.15 h, read-out: inhibition of PIP turnover", "value": 25, "unit": "%"},
      {"measurement": "reduction in PIP2 synthesis compared to untreated cells", "setting": "[1]; [10]", "value": 68, "unit": "%"},
      {"measurement": "reduction in PIP synthesis compared to untreated cells", "setting": "[1]; [10]", "value": 54, "unit": "%"},
      {"measurement": "reduction in PIP2 signalling", "setting": "[1]; [11]", "value": 75, "unit": "%"},
      {"measurement": "reduction in PIP signalling", "setting": "[1]; [11]", "value": 73, "unit": "%"},
      {"measurement": "reduction in PIP2 signalling", "setting": "[1]; [12]", "value": 68, "unit": "%"},
      {"measurement": "reduction in PIP signalling", "setting": "[1]; [12]", "value": 66, "unit": "%"},
      {"measurement": "additional reduction of PIP2 production compared to untreated cells", "setting": "[1]; [13]", "value": 33, "unit": "%"},
      {"measurement": "additional reduction of PIP production compared to untreated cells", "setting": "[1]; [13]", "value": 72, "unit": "%"},
      {"measurement": "frequency of epileptiform discharges (seizure discharge frequency)", "setting": "[2]", "value": "75.1±1.7", "unit": "%"},
      {"measurement": "activity at 500 µM", "setting": "[3]; Dictyostelium, 0.5 h, Table 3, 3H-AA labelled cells, 30 min, 0.5 mM treatment, read-out: AA release [% of control]", "value": 50, "unit": "%"},
      {"measurement": "IC50", "setting": "[3]; Dictyostelium, 3H arachidonic acid labelled cells, read-out: IC50 of decrease in radiolabel release", "value": 89, "unit": "µM"},
      {"measurement": "IC50", "setting": "[3]; Dictyostelium, 3H palmitic acid labelled cells, read-out: IC50 of inhibition of tritiated palmitic acid release", "value": 163, "unit": "µM"},
      {"measurement": "radiolabel release activity relative to control", "setting": "[3]; Table 3, 30 min, 0.5 mM", "value": "50 % of control"},
      {"measurement": "EC50", "setting": "[4]; 3H arachidonic acid, read-out: EC50 of increase in uptake of AA", "value": 47, "unit": "µM"},
      {"measurement": "EC50", "setting": "[4]; 3H palmitic acid, read-out: EC50 of increase in uptake of palmitic acid", "value": 160, "unit": "µM"},
      {"measurement": "fatty acid uptake in cell lines lacking fcsA", "setting": "[4]; fcsA -/- cells, 0.5 mM VPA", "value": "increase"},
      {"measurement": "intensity and diameter of fluorescent lipid droplets compared to untreated cells", "setting": "[5]", "value": "increase"},
      {"measurement": "effect on development of Dictyostelium", "setting": "[6]", "value": "inhibits the development"},
      {"measurement": "concentration in plasma in therapeutic use", "setting": "[7]; DSM IV, 2000", "value": "400 to 700", "unit": "µM"},
      {"measurement": "concentration in plasma of patients receiving treatment", "setting": "[7]; Silva et al., 2008", "value": "280 to 700", "unit": "µM"}
    ]}
  ]
}
